Four compounds from ChEMBL document CHEMBL1157950, “Sarcophytonolides E-H, cembranolides from the Hainan soft coral Sarcophyton latum” (J Nat Prod, 2006) can be followed below.

Activity calls are given as the source filed them. The rule behind the calls is not given here.

The subject of assay [1] is HL-60. Put plainly: Cytotoxicity against human HL60 cells at 20 ug/mL. The format is functional, cell-based.
The test system of assay [2] is A549. The assay is described as follows: Cytotoxicity against human A549 cells at 20 ug/mL. The assay is classed as functional, cell-based.

`CC(=O)O[C@H]1C/C(C)=C/CC/C(C)=C/[C@H](O)CC2=C[C@H](OC2=O)[C@@H]1C(C)C`: the result in assay [1] and in assay [2] was inactive.

Turning to `C/C1=C\[C@H](O)CC2=C[C@@H](OC2=O)[C@H](C(C)C)CC/C(C)=C/CC1`, the result in assay [1] and in assay [2] was inactive.

Turning to `C/C1=C\[C@@H](O)CC2=C[C@@H](OC2=O)[C@H](C(C)C)CC/C(C)=C/CC1`, the outcome in assay [1] and in assay [2] was inactive.

Regarding `C/C1=C\CC[C@H](C)C[C@H](O)CC2=C[C@@H](OC2=O)[C@H](C(C)C)CC1`, the result in assay [1] and in assay [2] was inactive.
